Results on 10 compounds are retold here after ChEMBL document CHEMBL3525902, “In vitro metabolism of oxymetazoline: evidence for bioactivation to a reactive metabolite” (Drug Metab Dispos, 2011).

Data set [1] is described as follows: Drug level in NADPH supplemented rabbit liver S9 fraction treated with 50 uM oxymetazoline assessed as compound formation after 1 hr by LC-MS/MS method. It counts as ADME, subcellular, Oryctolagus cuniculus. The following applies: s9, 1 h.
A short description of data set [2]: Retention time of the compound at 50 uM by LC-MS/MS method. It counts as physicochemical.
The subject of data set [3] is Liver. The data set is described as follows: Drug level in NADPH supplemented human liver S9 fraction treated with 50 uM oxymetazoline assessed as compound formation after 1 hr by LC-MS/MS method. It counts as ADME, subcellular. The conditions noted are these: s9, 1 h.
Data set [4] concerns Liver. The data set is described as follows: Drug level in NADPH supplemented rat liver S9 fraction treated with 50 uM oxymetazoline assessed as compound formation after 1 hr by LC-MS/MS method. It counts as ADME, subcellular. The conditions noted are these: s9, 1 h.
Data set [5] deals with T1, Cytochrome P450 2C19 (Homo sapiens, UniProt P33261). The data set is described as follows: Activity of human recombinant CYP2C19 assessed as compound formation from 50 uM oxymetazoline in presence of NADPH and glutathione by LC-MS/MS method. The class given is ADME. The following applies: recombinant enzyme.
Data set [6] can be described thus: Drug level in NADPH supplemented rabbit liver S9 fraction treated with 50 uM oxymetazoline assessed as compound-glutathione conjugate formation in presence of glutathione by LC-MS/MS method. It counts as ADME, subcellular, Oryctolagus cuniculus.
The nature of data set [7]: Drug level in NADPH supplemented rat liver S9 fraction treated with 50 uM oxymetazoline assessed as compound-glutathione conjugate formation in presence of glutathione by LC-MS/MS method. It counts as ADME, subcellular.
Data set [8] is described as follows: Drug level in NADPH supplemented human liver S9 fraction treated with 50 uM oxymetazoline assessed as compound-glutathione conjugate formation in presence of glutathione by LC-MS/MS method. It counts as ADME, subcellular.
For data set [9], the system named is Liver microsome. The data set is described as follows: Drug level in NADPH supplemented human liver microsomes fraction treated with 50 uM oxymetazoline assessed as compound formation after 1 hr by LC-MS/MS method. It counts as ADME. In general terms: Liver microsomes are a subcellular fraction often used to study metabolism.
A short description of data set [10]: Drug level in NADPH supplemented rabbit liver microsomes fraction treated with 50 uM oxymetazoline assessed as compound formation after 1 hr by LC-MS/MS method. The class given is ADME, Oryctolagus cuniculus.
Data set [11] has as its target T1, Cytochrome P450 2C19. The data set is described as follows: Activity of human recombinant CYP2C19 assessed as compound formation from 50 uM oxymetazoline in presence of NADPH by LC-MS/MS method. The following applies: recombinant enzyme. The class given is ADME.
Data set [12] has as its system Liver microsome. The data set is described as follows: Drug level in NADPH supplemented rat liver microsomes fraction treated with 50 uM oxymetazoline assessed as compound formation after 1 hr by LC-MS/MS method. The class given is ADME.
The nature of data set [13]: Drug level in NADPH supplemented rabbit liver S9 fraction treated with 50 uM oxymetazoline assessed as compound-N-acetyl cysteine conjugate formation in presence of N-acetyl cysteine by LC-MS/MS method. It counts as ADME, subcellular, Oryctolagus cuniculus.

T1 sequence (P33261 whole entry): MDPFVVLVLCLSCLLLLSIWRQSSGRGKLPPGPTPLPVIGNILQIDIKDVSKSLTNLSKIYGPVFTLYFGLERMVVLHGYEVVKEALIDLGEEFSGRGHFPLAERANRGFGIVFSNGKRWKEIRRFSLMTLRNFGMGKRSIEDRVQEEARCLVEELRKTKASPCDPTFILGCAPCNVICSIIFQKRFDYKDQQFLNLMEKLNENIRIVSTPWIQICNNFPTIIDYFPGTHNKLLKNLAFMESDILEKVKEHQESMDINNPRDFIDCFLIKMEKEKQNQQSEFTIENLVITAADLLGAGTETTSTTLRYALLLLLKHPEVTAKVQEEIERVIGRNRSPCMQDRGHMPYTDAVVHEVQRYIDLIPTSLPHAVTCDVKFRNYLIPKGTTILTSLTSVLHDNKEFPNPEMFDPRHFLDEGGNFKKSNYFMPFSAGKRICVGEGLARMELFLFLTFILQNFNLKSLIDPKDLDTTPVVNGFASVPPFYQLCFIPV

As to `Cc1c(O)c(C(C)(C)CO)cc(CSC[C@H](NC(=O)CC[C@H](N)C(=O)O)C(=O)NCC(=O)O)c1Cc1ncc[nH]1`, the Drug metabolism entry in data set [1] was “metabolite_detected”. This compound had a Retention_time in data set [2] of 6.34 min.

On to `Cc1c(O)c(C(C)(C)C)cc(CSC[C@H](NC(=O)CC[C@H](N)C(=O)O)C(=O)NCC(=O)O)c1Cc1ncc[nH]1`, for which the Drug metabolism result (in the data set with Liver [3]; in the data set with Liver [4]; in data set [1]; on Cytochrome P450 2C19 [5]; in data set [6]; in data set [7]) was “metabolite_detected” each time. The Drug metabolism result in [8] was “metabolite_detected”. In [2], this compound returned a Retention_time of 4.65 min.

On to `Cc1c(O)c(C(C)(C)C)cc(CSC[C@H](N)C(=O)O)c1Cc1ncc[nH]1`, for which, in data set [1], the Drug metabolism result was “metabolite_detected”. For the same compound, in [2], the Retention_time came to 3.48 min.

As to `Cc1cc(C(C)(C)CO)c(O)c(C)c1CC1=NCCN1`, the Drug metabolism entry (in the data set with Liver microsome [9]; in data set [10]; with Liver [3]; on Cytochrome P450 2C19 [11]; with Liver [4]; in [1]) was “metabolite_detected” throughout. For the same compound, the Drug metabolism entry (in the data set on Liver microsome [12]; in [6]; in data set [7]; in data set [8]) was “metabolite_detected” in each case. Further, in [2], the Retention_time came to 4.95 min.

In the case of `Cc1cc(C(C)(C)C)c(O)c(C)c1Cc1ncc[nH]1`, the Drug metabolism entry (with Liver microsome [9]; in data set [10]; in the data set with Liver [3]; on Cytochrome P450 2C19 [11]; with Liver [4]; in data set [13]) was “metabolite_detected” throughout. Moreover, the Drug metabolism result (in data set [1]; in the data set with Liver microsome [12]) was “metabolite_detected” each time. In addition, the Retention_time in data set [2] was 12.36 min.

In the case of `Cc1cc(C(C)(C)CO)c(O)c(C)c1Cc1ncc[nH]1`, the Drug metabolism entry (in the data set on Liver microsome [9]; in data set [10]; with Liver [3]; on Cytochrome P450 2C19 [11]; in the data set on Liver [4]; in [1]) was “metabolite_detected” each time. Also, the Drug metabolism entry (with Liver microsome [12]; in data set [6]; in data set [7]; in [8]) was “metabolite_detected” in each case. This compound showed a Retention_time in data set [2] of 5.64 min.

Take `Cc1c(O)c(C(C)(C)C)cc(CSC[C@H](NC(=O)CC[C@H](N)C(=O)O)C(=O)NCC(=O)O)c1CC1=NCCN1`: the Drug metabolism result (with Liver [3]; in the data set with Liver [4]; in data set [1]; on Cytochrome P450 2C19 [5]; in data set [6]; in data set [7]) was “metabolite_detected” throughout. For the same compound, the Drug metabolism result in data set [8] is “metabolite_detected”. In [2], this compound showed a Retention_time of 4.22 min.

Take `Cc1c(O)c(C(C)(C)CO)cc(CSC[C@H](NC(=O)CC[C@H](N)C(=O)O)C(=O)NCC(=O)O)c1CC1=NCCN1`: the Drug metabolism result in data set [1] is “metabolite_detected”. The compound also yielded a Retention_time in [2] of 3.86 min.

As to `Cc1c(O)c(C(C)(C)C)cc(CSC[C@H](N)C(=O)O)c1CC1=NCCN1`, the Drug metabolism entry (in the data set with Liver [3]; in [1]) was “metabolite_detected” throughout. The Retention_time in data set [2] worked out at 3.17 min.

With `CC(=O)N[C@@H](CSCc1cc(C(C)(C)C)c(O)c(C)c1CC1=NCCN1)C(=O)O`, the Drug metabolism entry in data set [13] was “metabolite_detected”.
